Active and inactive are the calls of the source. The rule behind the calls is not given here.
Legend:
[1] = target: T1, Neurotensin receptor type 1 (Homo sapiens, UniProt P30989); test: Allosteric modulation of human GFP-fused PK-tagged Gq-coupled NTR1 expressed in CHOK1 cells assessed as induction of NT (8 to 13) peptide-mediated beta-arrestin recruitment measured after 90 mins by pathhunter assay; assay type: cell-based
[2] = target: T1, Neurotensin receptor type 1; test: Allosteric modulation of human GFP-fused PK-tagged Gq-coupled NTR1 expressed in CHOK1 cells assessed as induction of NT (8 to 13) peptide-mediated beta-arrestin recruitment measured after 90 mins by pathhunter assay relative to NT (8 to 13) peptide; assay type: cell-based
[3] = target: Neurotensin receptor type 2 (Homo sapiens) (UniProt O95665); test: Allosteric modulation of NTR2 (unknown origin) assessed as induction of NT (8 to 13) peptide-mediated beta-arrestin recruitment at >80 uM by pathhunter assay
[4] = target: T1, Neurotensin receptor type 1; test: Agonist activity at NTR1 (unknown origin) expressed in CHO cells assessed as effect on calcium flux by Fluo-4 NW calcium dye based fluorescence assay; assay type: functional, cell-based
[5] = target: G-protein coupled receptor 35 (Homo sapiens) (UniProt Q9HC97); test: Allosteric modulation of human PK-tagged Gi/Go-coupled GPR35 expressed in CHOK1 cells assessed as induction of zaprinast-mediated beta-arrestin recruitment by pathhunter assay; assay type: cell-based
[6] = target: G-protein coupled receptor 55 (Homo sapiens) (UniProt Q9Y2T6); test: Allosteric modulation of human PK-tagged Gq-coupled GPR55 expressed in CHOK1 cells assessed as induction of L-alpha-Lysophosphatidylinositol-mediated beta-arrestin recruitment by pathhunter assay; assay type: functional, cell-based
[7] = target: Kappa-type opioid receptor (Homo sapiens) (UniProt P41145); test: Allosteric modulation of human PK-tagged Gi/Go-coupled KOR expressed in CHOK1 cells assessed as induction of dynorphin A-mediated beta-arrestin recruitment by pathhunter assay; assay type: cell-based
[8] = target: T1, Neurotensin receptor type 1; test: Positive allosteric modulation of recombinant human NTR1 expressed in HEK293 cells assessed as increase in [125I]-neurotensin binding measured after 45 mins relative to control; assay type: cell-based
[9] = target: Neurotensin receptor type 1 (Mus musculus) (UniProt O88319); test: Positive allosteric modulation of NTR1 in ICR mouse brain assessed as increase in [125I]-neurotensin binding measured after 20 mins; assay type: tissue-based
[10] = target: Neurotensin receptor type 2 (Homo sapiens) (UniProt O95665); test: Positive allosteric modulation of recombinant human NTR2 expressed in HEK293 cells assessed as increase in [125I]-neurotensin binding measured after 3 hrs; assay type: cell-based
[11] = target: T1, Neurotensin receptor type 1; test: Allosteric modulation of human GFP-fused PK-tagged Gq-coupled NTR1 expressed in CHOK1 cells assessed as induction of NT (8 to 13) peptide-mediated beta-arrestin recruitment at 0.5 to 356 nM measured after 90 mins by pathhunter assay; assay type: cell-based
Mus musculus [12] = test: Suppression of hyperlocomotion in DAT knockout C57BL/6J mouse assessed as reduction in total distance traveled at 12 mg/kg, ip measured up to 2 hrs by open field test; assay type: functional, organism-based
Mus musculus [13] = test: Suppression of hyperlocomotion in DAT knockout C57BL/6J mouse assessed as reduction in total distance traveled at 10 to 100 mg/kg, po measured up to 2 hrs by open field test; assay type: functional, organism-based
[14] = target: T2, Alpha-2A adrenergic receptor (Homo sapiens) (UniProt P08913); test: Binding affinity to alpha2A adrenoceptor (unknown origin) at 5 uM relative to control
T2 sequence (whole entry): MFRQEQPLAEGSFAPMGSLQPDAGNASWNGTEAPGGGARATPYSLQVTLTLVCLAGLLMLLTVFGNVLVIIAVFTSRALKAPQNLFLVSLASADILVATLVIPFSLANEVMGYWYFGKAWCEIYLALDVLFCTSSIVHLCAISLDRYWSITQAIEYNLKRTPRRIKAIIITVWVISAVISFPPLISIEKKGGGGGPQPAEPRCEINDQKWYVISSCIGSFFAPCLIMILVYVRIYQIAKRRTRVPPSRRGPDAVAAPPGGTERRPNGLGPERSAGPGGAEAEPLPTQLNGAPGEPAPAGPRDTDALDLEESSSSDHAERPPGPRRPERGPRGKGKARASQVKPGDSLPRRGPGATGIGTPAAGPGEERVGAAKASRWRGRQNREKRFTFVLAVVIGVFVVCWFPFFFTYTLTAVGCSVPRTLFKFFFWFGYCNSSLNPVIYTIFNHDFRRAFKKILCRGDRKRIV

[15] = target: D(1A) dopamine receptor (Homo sapiens) (UniProt P21728); test: Binding affinity to D1R (unknown origin) at 5 uM relative to control
[16] = target: Histamine H1 receptor (Homo sapiens) (UniProt P35367); test: Binding affinity to H1R (unknown origin) at 5 uM relative to control
[17] = target: 5-hydroxytryptamine receptor 2B (Homo sapiens) (UniProt P41595); test: Binding affinity to 5HT2B (unknown origin) at 5 uM relative to control
5-hydroxytryptamine receptor 2B (Homo sapiens), sequence (P41595 whole entry): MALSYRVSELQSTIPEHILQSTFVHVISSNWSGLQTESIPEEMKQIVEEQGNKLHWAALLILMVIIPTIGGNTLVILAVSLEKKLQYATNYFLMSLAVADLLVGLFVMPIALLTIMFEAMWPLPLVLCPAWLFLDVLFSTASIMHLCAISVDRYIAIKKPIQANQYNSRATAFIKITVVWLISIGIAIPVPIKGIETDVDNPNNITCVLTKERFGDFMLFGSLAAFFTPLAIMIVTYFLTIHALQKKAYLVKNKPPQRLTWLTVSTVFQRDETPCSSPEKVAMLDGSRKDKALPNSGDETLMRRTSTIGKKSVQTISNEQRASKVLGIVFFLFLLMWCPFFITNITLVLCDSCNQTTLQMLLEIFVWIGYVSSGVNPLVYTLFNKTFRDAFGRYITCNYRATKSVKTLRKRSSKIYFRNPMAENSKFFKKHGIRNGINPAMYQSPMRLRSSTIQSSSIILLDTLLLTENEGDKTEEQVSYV

T1 sequence (P30989 whole entry, the tested form may be a part): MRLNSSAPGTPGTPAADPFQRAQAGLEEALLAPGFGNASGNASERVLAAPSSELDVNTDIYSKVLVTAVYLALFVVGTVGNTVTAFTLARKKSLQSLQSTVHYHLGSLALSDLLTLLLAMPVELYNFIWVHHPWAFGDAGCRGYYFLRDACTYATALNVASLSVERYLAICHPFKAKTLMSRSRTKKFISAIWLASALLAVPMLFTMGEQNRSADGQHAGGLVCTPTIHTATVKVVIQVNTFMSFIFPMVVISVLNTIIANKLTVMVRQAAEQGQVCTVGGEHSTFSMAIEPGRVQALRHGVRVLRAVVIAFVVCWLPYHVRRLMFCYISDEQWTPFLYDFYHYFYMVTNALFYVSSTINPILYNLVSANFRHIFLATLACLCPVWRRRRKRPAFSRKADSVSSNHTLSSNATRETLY
Neurotensin receptor type 2 (Homo sapiens), sequence (O95665 whole entry, the tested form may be a part): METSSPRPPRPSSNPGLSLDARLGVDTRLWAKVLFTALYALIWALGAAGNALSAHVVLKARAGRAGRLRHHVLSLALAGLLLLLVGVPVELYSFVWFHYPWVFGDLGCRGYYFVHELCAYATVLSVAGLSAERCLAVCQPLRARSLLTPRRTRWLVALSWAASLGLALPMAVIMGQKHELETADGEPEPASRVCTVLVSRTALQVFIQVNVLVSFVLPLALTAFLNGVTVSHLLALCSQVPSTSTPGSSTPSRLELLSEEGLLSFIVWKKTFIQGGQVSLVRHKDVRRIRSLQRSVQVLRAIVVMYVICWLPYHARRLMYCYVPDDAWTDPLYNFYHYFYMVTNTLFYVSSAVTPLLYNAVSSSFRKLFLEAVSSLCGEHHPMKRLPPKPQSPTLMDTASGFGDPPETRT
G-protein coupled receptor 35 (Homo sapiens), sequence (Q9HC97 whole entry): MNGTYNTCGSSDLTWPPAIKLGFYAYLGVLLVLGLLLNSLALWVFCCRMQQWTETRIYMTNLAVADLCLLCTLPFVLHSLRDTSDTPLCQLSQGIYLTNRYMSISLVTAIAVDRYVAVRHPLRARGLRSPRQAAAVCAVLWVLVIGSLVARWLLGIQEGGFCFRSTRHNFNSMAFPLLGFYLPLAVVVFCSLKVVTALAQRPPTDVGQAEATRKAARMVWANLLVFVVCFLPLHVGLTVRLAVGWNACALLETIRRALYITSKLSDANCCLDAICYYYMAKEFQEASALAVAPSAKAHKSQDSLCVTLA
Kappa-type opioid receptor (Homo sapiens), sequence (P41145 whole entry): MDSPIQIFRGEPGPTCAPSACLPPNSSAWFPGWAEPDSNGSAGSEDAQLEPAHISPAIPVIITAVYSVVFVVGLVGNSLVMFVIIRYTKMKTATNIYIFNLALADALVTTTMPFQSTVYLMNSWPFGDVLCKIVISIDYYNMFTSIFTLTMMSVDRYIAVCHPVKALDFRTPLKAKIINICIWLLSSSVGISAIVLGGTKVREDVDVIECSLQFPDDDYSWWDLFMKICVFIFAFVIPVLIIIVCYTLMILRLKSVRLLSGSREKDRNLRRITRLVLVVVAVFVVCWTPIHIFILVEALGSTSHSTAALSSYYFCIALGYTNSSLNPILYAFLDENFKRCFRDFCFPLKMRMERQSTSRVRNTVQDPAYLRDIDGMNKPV
G-protein coupled receptor 55 (Homo sapiens), sequence (Q9Y2T6 whole entry): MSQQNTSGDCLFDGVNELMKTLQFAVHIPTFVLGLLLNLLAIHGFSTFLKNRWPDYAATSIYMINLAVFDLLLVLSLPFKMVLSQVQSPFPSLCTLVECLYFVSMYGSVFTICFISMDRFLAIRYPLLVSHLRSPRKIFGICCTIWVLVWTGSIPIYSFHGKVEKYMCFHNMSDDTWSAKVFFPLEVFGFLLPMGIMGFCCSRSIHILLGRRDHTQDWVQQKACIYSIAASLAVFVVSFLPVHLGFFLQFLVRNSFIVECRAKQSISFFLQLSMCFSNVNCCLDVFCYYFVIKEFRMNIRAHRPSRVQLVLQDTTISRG
Neurotensin receptor type 1 (Mus musculus), sequence (O88319 whole entry): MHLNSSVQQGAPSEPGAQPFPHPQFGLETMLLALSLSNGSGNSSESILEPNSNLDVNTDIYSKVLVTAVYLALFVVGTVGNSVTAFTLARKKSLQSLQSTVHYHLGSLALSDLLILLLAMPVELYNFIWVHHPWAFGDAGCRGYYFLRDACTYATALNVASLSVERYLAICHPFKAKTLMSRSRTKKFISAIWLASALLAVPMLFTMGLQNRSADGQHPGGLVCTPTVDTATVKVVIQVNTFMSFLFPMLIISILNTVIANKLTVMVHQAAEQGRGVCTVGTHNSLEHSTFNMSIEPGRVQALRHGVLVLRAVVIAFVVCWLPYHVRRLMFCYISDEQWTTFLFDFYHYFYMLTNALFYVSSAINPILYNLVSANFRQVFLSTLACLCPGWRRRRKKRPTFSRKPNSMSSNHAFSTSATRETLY
D(1A) dopamine receptor (Homo sapiens), sequence (P21728 whole entry): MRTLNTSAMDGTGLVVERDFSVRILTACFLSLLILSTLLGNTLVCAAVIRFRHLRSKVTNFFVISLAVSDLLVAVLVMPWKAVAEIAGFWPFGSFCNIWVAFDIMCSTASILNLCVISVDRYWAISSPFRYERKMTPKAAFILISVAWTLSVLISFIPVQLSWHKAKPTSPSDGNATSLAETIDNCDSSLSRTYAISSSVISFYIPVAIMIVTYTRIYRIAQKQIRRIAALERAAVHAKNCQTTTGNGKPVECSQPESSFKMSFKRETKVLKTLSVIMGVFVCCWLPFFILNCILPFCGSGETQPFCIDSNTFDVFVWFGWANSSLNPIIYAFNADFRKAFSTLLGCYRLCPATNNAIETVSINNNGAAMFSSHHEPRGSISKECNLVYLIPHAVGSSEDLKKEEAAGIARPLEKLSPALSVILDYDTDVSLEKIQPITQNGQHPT
Histamine H1 receptor (Homo sapiens), sequence (P35367 whole entry): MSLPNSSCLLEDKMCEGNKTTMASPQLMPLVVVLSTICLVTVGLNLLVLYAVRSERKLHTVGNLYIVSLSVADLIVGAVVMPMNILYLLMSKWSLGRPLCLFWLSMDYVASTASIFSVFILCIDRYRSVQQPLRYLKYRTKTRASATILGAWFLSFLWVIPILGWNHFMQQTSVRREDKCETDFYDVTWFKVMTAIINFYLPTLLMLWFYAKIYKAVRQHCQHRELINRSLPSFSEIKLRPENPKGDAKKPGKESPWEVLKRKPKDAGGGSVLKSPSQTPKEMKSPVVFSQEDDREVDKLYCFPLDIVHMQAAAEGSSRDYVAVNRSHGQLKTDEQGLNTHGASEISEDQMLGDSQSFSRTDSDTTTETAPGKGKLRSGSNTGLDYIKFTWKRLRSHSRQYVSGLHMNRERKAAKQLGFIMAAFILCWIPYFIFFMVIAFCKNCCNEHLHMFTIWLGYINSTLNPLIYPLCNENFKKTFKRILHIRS

Structure (SMILES) | EC50 [1] | Emax [2] | Activity [3] | also measured
COc1ccccc1C1CCN(c2nc(C3(F)CC3)nc3ccc(N(C)CCN4CCOCC4)cc23)CC1 | 1720 nM | 97% | inactive | 
COCCN(C)c1ccc2nc(C3CC3)nc(N3CCC(c4ccccc4OC)CC3)c2c1 | 1120 nM | 79% | inactive | 
COc1cc2nc(C3CC3)nc(N3CCN(c4ccccc4OC)CC3)c2cc1OC | 2870 nM |  | inactive | Activity [4]: inactive; Activity [5]: inactive; Activity [6]: inactive; Activity [7]: inactive
COc1ccccc1C1CCN(c2nc(C3(F)CC3)nc3ccc(N(C)C)cc23)CC1 | 920 nM | 84% | inactive | 
CCCN(C)c1cc2c(N3CCC(c4ccccc4OC)CC3)nc(C3CC3)nc2cc1C | 990 nM | 86% | inactive | 
COc1ccccc1C1CCN(c2nc(C3(C(F)(F)F)CC3)nc3ccc(N(C)CCN4CCOCC4)cc23)CC1 | 3810 nM | 78% | inactive | 
COCCN(C)c1ccc2nc(C3(C)CC3)nc(N3CCC(c4ccccc4OC)CC3)c2c1 | 2230 nM | 60% | inactive | 
COc1ccccc1C1CCN(c2nc(C3CC3)nc3ccc(N4CC[C@H](OC)C4)cc23)CC1 | 810 nM | 82% | inactive | 
CCCN(C)c1ccc2c(N3CCC(c4ccccc4OC)CC3)nc(C3CC3)nc2c1 | 10000 nM | 86% | inactive | 
COc1ccccc1C1CCN(c2nc(C3CC3)nc3ccc(N4CCC(O)CC4)cc23)CC1 | 6720 nM | 82% | inactive | 
CCCN(C)c1cc2c(N3CCC(c4ccccc4OC)CC3)nc(C3CC3)nc2cc1F | 3010 nM | 68% | inactive | 
COc1ccccc1C1CCN(c2nc(C3(C)CC3)nc3ccc(N(C)CCO)cc23)CC1 |  | 90% | inactive | 
COCCN(C)c1ccc2nc(C3(F)CC3)nc(N3CCC(c4ccccc4OC)CC3)c2c1 | 1060 nM | 86% | inactive | 
COc1ccccc1C1CCN(c2nc(C3CC3)nc3ccc(N(C)C)cc23)CC1 | 888 nM | 89% | inactive | 
COc1ccccc1C1CCN(c2nc(C3CCC3)nc3ccc(N(C)CCO)cc23)CC1 | 1050 nM | 80% | inactive | 
COc1ccccc1C1CCN(c2nc(C3(F)CC3)nc3ccc(N(C)CCO)cc23)CC1 |  | 100% | inactive | Activity [4]: inactive; Emax [8]: 140%; Activity [9]: Active; Activity [10]: inactive; Activity [11]: inactive; Activity [5]: inactive; Activity [6]: inactive; Activity [7]: inactive; Activity (Mus musculus [12]): Active; Activity (Mus musculus [13]): Active; Activity [14]: 55%; Activity [15]: 36%; Activity [16]: 75%; Activity [17]: 42%
COc1ccccc1C1CCN(c2nc(C3(C)CCC3)nc3ccc(N(C)CCO)cc23)CC1 | 1480 nM | 75% | inactive | 
COc1ccccc1C1CCN(c2nc(C3CC3)nc3ccc(N(C)CCO)c(C)c23)CC1 | 1260 nM | 93% | inactive | 
COc1cc2nc(C3CC3)nc(N3CCC(c4ccccc4OC)CC3)c2cc1OC | 1040 nM | 89% | inactive | 
COc1ccccc1C1CCN(c2nc(C3CC3)nc3ccc(N4CC[C@H](O)C4)cc23)CC1 | 1010 nM | 78% | inactive | 
COc1cc2nc(C3CC3)nc(C3CCN(c4ccccc4OC)CC3)c2cc1OC | > 20000 nM |  | inactive | 
COc1ccccc1C1CCN(c2nc(C3CC3)nc3ccc(N(C)CCN4CCOCC4)cc23)CC1 | 810 nM | 92% | inactive | 
COc1ccccc1C1CCN(c2nc(C3(C)CC3)nc3ccc(N(C)CCN4CCOCC4)cc23)CC1 | 3360 nM | 71% | inactive | 
COc1ccccc1C1CCN(c2nc(C3CCCC3)nc3ccc(N(C)CCO)cc23)CC1 | 3880 nM | 78% | inactive | 
CCCN(C)c1ccc2nc(C3(F)CC3)nc(N3CCC(c4ccccc4OC)CC3)c2c1 | 1450 nM | 80% | inactive | 
COc1ccccc1C1CCN(c2nc(-c3ccccc3)nc3ccc(N(C)CCO)cc23)CC1 | 4230 nM | 70% | inactive | 
CCN(C)c1cccc2nc(C3CC3)nc(N3CCC(c4ccccc4OC)CC3)c12 | 6710 nM | 60% | inactive | 
COc1ccccc1C1CCN(c2nc(C3CC3)nc3ccc(N4CCC(OC)CC4)cc23)CC1 | 2780 nM | 79% | inactive | 

The remaining compounds from weak to strong by EC50 [1], led by results:

EC50 [1] | Emax [2] | Activity [3] | Structure (SMILES) | also measured
732 nM | 68% | inactive | CCCN(C)c1ccc2nc(C3CC3)nc(N3CCC(c4ccccc4OC)CC3)c2c1 | 
710 nM |  |  | COc1ccccc1N1CCN(c2nc(C3CC3)nc3ccc(N(C)C)cc23)CC1 | 
640 nM | 93% | inactive | COc1ccccc1C1CCN(c2nc(C3CC3)nc3ccc(N4CC[C@@H](OC)C4)cc23)CC1 | 
600 nM | 98% | inactive | COc1ccccc1C1CCN(c2nc(C3CC3)nc3cc(Cl)c(N(C)CCO)cc23)CC1 | 
590 nM | 95% | inactive | COc1ccccc1C1CCN(c2nc(C3CC3)nc3ccc(N(C)CCO)c(F)c23)CC1 | 
560 nM | 88% | inactive | COc1ccccc1C1CCN(c2nc(C3CC3)nc3cc(C)c(N(C)CCO)cc23)CC1 | 
560 nM | 80% | inactive | CCN(C)c1ccc2nc(C3CC3)nc(N3CCC(c4ccccc4OC)CC3)c2c1 | 
500 nM | 91% | inactive | COc1ccccc1C1CCN(c2nc(C3CC3)nc3ccc(N(C)CCO)c(Cl)c23)CC1 | 
478 nM | 92% | inactive | COc1ccccc1C1CCN(c2nc(C3CC3)nc3ccc(N(C)CCO)cc23)CC1 | 
440 nM | 79% | inactive | COc1ccccc1C1CCN(c2nc(C3CC3)nc3ccc(N4CC[C@@H](O)C4)cc23)CC1 | 
340 nM | 94% | inactive | COc1ccccc1C1CCN(c2nc(C3(C(F)(F)F)CC3)nc3ccc(N(C)CCO)cc23)CC1 | 
270 nM | 96% | inactive | COc1ccccc1C1CCN(c2nc(C3(F)CCC3)nc3ccc(N(C)CCO)cc23)CC1 | 
220 nM | 95% | inactive | COc1ccccc1C1CCN(c2nc(C3CC3)nc3c(Cl)cc(N(C)CCO)cc23)CC1 | 
160 nM | 100% | inactive | COc1ccccc1C1CCN(c2nc(C3CC3)nc3c(F)cc(N(C)CCO)cc23)CC1 | 
160 nM | 87% | inactive | COc1ccccc1C1CCN(c2nc(C3CC3)nc3c(C)cc(N(C)CCO)cc23)CC1 | 

Reference: ChEMBL document CHEMBL4373709 (J Med Chem, 2019)
